Test results as given in US20250387360A1, “Methods and Compositions for Treatment of Addiction” (University of Connecticut, priority 2024, published 2025).

Test system: gene expression in the amygdala
Assay: Bulk RNA-seq of amygdala (DESeq2, IPA)
Format: in vivo, mouse
Experimental: Total RNA was isolated from amygdala samples using the Direct-zol RNA Microprep Kit (Zymoresearch, CA, U.S.A). Quantification of total RNA and assessment of its purity ratios were performed using the NanoDrop 2000 spectrophotometer (Thermo Fisher Scientific, MA, U.S.A, RRID:SCR_018042).
Total RNA libraries were prepared for transcriptome sequencing using the Zymo-Seq RiboFree Stranded Total RNA library preparation kit (Zymo Research, CA, U.S.A) following the manufacturer's instructions. Further, rRNAs were depleted as part of the sample preparation process. Libraries were validated for length and adapter dimer removal using the Agilent TapeStation 4200 D1000 High Sensitivity assay (Agilent Technologies, CA, U.S.A, RRID:SCR_019398). Subsequent quantification and normalization were carried out using the dsDNA High Sensitivity Assay for Qubit 3.0 (Life Technologies, CA, U.S.A, RRID:SCR_020311). Sample libraries were then prepared for Illumina sequencing following the manufacturer's protocol (Illumina, CA, U.S.A). All the individual samples were consolidated into a single sequencing pool, with proportions targeting 30M reads/sample, and sequenced on the Illumina NovaSeq 6000 platform (Illumina, CA, U.S.A, RRID:SCR_016387).
Raw reads were subjected to adaptor removal and quality control including filtering of low-quality reads. Filtered reads were mapped to the mouse reference genome using STAR (Spliced Transcripts Alignment to a Reference, RRID:SCR_004463). Gene expression level was estimated by transcripts per million of transcript sequences. Principal component analysis (PCA) was performed to visualize overall gene expression differences between compared groups in several major principal components. The analysis of differential gene expression (DEG) was performed using the DESeq2 (RRID:SCR_015687) package for RNA-Seq data. […] The Benjamini-Hochberg procedure, also referred to as the false discovery rate (FDR) method, was applied to correct p-values for multiple testing. We utilized Ingenuity Pathway Analysis (IPA, RRID:SCR_008653) to predict pathways associated with differentially expressed genes and employed Gene Set Enrichment Analysis (GSEA, RRID:SCR_003199) to visualize the outcomes in a heatmap. Right tailed Fisher's exact test was performed in the IPA for identifying significant canonical pathways.
To gain a molecular understanding of the effects of sodium valerate supplementation on brain function, bulk RNA sequencing (RNA-seq) analysis was performed on amygdala tissue of mice that underwent the DID paradigm after sodium valerate or NaCl (n=7 mice/group) supplementation. […] DESeq2 identified a total of 301 DEG at the adjusted p value <0.25, 126 genes at the adjusted p value <0.10, and 75 genes at the adjusted p value <0.05. […] Among these genes, the top five protein coding genes with the highest expression in sodium valerate-supplemented mice are Kcna10 (potassium voltage-gated channel, shaker-related subfamily, member 10), Pln (phospholamban), H60C (histocompatibility antigen 60c), Idi1 (isopentenyl-diphosphate delta isomerase, pseudogene 3) and Snord34 (small nucleolar RNA, C/D box 34). […] PTGS2 is a prostanoids producer that responds to inflammation. Its downregulation in the sodium valerate supplemented group (log2Fold change: −0.65; adjusted p=0.0002) indicates an anti-inflammatory effect of valerate. […] As SCFAs may function in the brain through G protein-coupled receptors (GPCRs), gene expression levels of 85 GPRs were examined in the RNAseq data. […] IPA was performed to identify changes to the molecular signaling pathways and to comparatively assess the sodium valerate effects in the amygdala. […]

For CCCCC(=O)[O-].[Na+] [sodium valerate], the “MAPKs at the RNA level” value was “downregulated”, the “six mitochondrial genes encoding subunits of NADH dehydrogenase (Complex I)” value was “consistently upregulated” and the “downregulated genes among the 75 significant DEG” value (adjusted p <0.05) was 28. The “upregulated genes among the 75 significant DEG” value (adjusted p <0.05) was 47, the “PTGS2 expression, log2Fold change” value (adjusted p=0.0002) was −0.65 and the “GPR158 expression, log2Fold change” value (unadjusted p<0.01) was −0.26. For the same molecule, the “Gpr56 expression, log2Fold change” value (unadjusted p<0.01) was 0.28.
